Assay results: patent US20250161476A1 (REGENERON PHARMACEUTICALS, INC., priority 2020, published 2025)
*1 amine or outer side, *2 acyl side, *3 side chain or, on linkers, in order; H or OH if unused. Where a SMILES comes first, the peptide text is derived from it. [ ]: non-standard residue; d: D form. The star is where a group is joined. Bip(2'-Et-4'-O(CH2)4NH2) = CCc1cc(OCCCCN[*:3])ccc1-c1ccc(C[C@H](N[*:1])C(=O)[*:2])cc1; Bip(2'-Et,4'-O(CH2)4N3) = CCc1cc(OCCCCN=[N+]=[N-])ccc1-c1ccc(C[C@H](N)C(=O)O)cc1; Bip(2'-Et,4'-O(CH2)4NH2) = CCc1cc(OCCCCN)ccc1-c1ccc(C[C@H](N)C(=O)O)cc1; X6 = O=C(NCCOCCOCCOCCOC(=O)*)OC[C@@H]1[C@@H]2CCc3[nH]nnc3CC[C@@H]21; Malonyl(2,2-Me2,histaminyl) = CC(C)(C(=O)NCCc1cnc[nH]1)C(=O)*; Nva(5-(3,5-Me2Ph)) = Cc1cc(C)cc(CCC[C@H](N)C(=O)O)c1; Ala(1H-tetrazol-5-yl) = N[C@@H](Cc1nnn[nH]1)C(=O)O; αMePhe(2-F) = C[C@](N)(Cc1ccccc1F)C(=O)O; Aib = CC(C)(N)C(=O)O

Columns and labels:
HEK293/CRE-Luc cells = test: cAMP responsive luciferase reporter assay, HEK293/CRE-Luc cells (no hGLP1R expression); assay type: cell-based, human
Excerpt: To test the activity of GLP1R agonist payloads, GLP1R agonist linker-payloads (LPs), and anti-GLP1R antibody tethered drug conjugates (ATDCs) of the disclosure, a cell-based cAMP responsive luciferase reporter assay was developed. To generate the assay cell line, the firefly luciferase gene was placed under the control of a cAMP response element (CRE) located upstream of a minimal promoter and transfected into HEK293 cells and referred to herein as HEK293/CRE-Luc cells.
Three-fold serial dilutions of free payloads or LPs were prepared in 100% DMSO, transferred to fresh assay media, and added to the cells at a final constant DMSO concentration of 0.2%. The last well in the plate served as a blank control containing only the assay media and 0.2% DMSO (untreated well) and was plotted as a continuation of the 3-fold serial dilution. Four to six hours later, luciferase activity was determined after the addition of One-Glo™ reagent (Promega, Cat #E6130) to each well. Relative light units (RLUs) were measured on an Envision luminometer (PerkinElmer) and EC50 values were determined using a four-parameter logistic equation over a 12-point dose response curve (GraphPad Prism). The signal to noise (S/N) was determined by taking the ratio of the highest RLU on the dose response curve to the RLU in the untreated wells.

[1] = Plasma stability of payloads and linker-payloads, human plasma; assay type: in vitro ADME; settings: for half-life at 2 µM: human, pooled plasma, pH 7.4, payload properties table, species not given, read-out: Plasma stability t½ (converted)
Experimental: The plasma stability of payloads and linker payloads of the disclosure were measured. For the assay, pooled frozen plasma (human, mouse or monkey) was thawed in cold water or a 37° C. water bath prior to experiment. Plasma was centrifuged at 4000 rpm for 5 min if any clots were observed, they were subsequently removed. If required, the pH was adjusted to 7.4±0.1. For the preparation of compounds and positive controls, a 1 mM intermediate solution was prepared by diluting 10 μL of their stock solution with 90 μL DMSO; a 1 mM intermediate solution of the positive control (Propantheline) was prepared by diluting 10 μL of its stock solution with 90 μL ultrapure water. […] 98 μL of plasma was spiked with 2 μL of dosing solution (100 μM) to achieve the final concentration of 2 μM in duplicate. Samples were then incubated at 37° C. in a water bath. […] At each time point, 400 μL of stop solution (200 ng/mL tolbutamide plus 200 ng/mL labetalol in 50% ACN/MeOH) was added to precipitate protein and mixed thoroughly. Sample plates were then centrifuged at 4,000 rpm for 10 min. An aliquot of supernatant (50 μL) was transferred from each well and mixed with 100 μL ultra-pure water. The samples were then shaken at 800 rpm for approximately 10 min before submitting for LC-MS/MS analysis.

[2] = human plasma, tested for 7 days (D)
[3] = human plasma, tested for 3 days (C)
[4] = human plasma, tested for 1 day (A)

With `CC[C@H](C)[C@H](NC(=O)[C@H](Cc1ccccc1)NC(=O)[C@H](CCC(=O)O)NC(=O)[C@H](CCCCN)NC(=O)[C@H](C)NC(=O)[C@H](C)NC(=O)[C@H](CCC(N)=O)NC(=O)CNC(=O)[C@H](CCC(=O)O)NC(=O)[C@H](CC(C)C)NC(=O)[C@H](Cc1ccc(O)cc1)NC(=O)[C@H](CO)NC(=O)[C@H](CO)NC(=O)[C@@H](NC(=O)[C@H](CC(=O)O)NC(=O)[C@H](CO)NC(=O)[C@@H](NC(=O)[C@H](Cc1ccccc1)NC(=O)[C@@H](NC(=O)CNC(=O)[C@H](CCC(=O)O)NC(=O)[C@H](C)NC(=O)[C@@H](N)Cc1c[nH]cn1)[C@@H](C)O)[C@@H](C)O)C(C)C)C(=O)N[C@@H](C)C(=O)N[C@@H](Cc1c[nH]c2ccccc12)C(=O)N[C@@H](CC(C)C)C(=O)N[C@H](C(=O)N[C@@H](CCCCN)C(=O)NCC(=O)N[C@@H](CCCNC(=N)N)C(N)=O)C(C)C` [GLP1, Glucagon-like peptide 1, reference compound] the “HEK293/CRE-LUC S/N” value (HEK293/CRE-Luc cells) was 1.3 and the “HEK293/CRE-Luc S/N” value (HEK293/CRE-Luc cells; ATDCs, Table 12) was 1.4.
In the case of `CCc1cc(OCCCCn2cc(COCCOCCOCCOCCNC(=O)OC[C@@H]3[C@@H]4CCc5[nH]nnc5CC[C@@H]43)nn2)ccc1-c1ccc(C[C@H](NC(=O)[C@H](CC(=O)O)NC(=O)[C@H](CO)NC(=O)[C@@H](NC(=O)[C@](C)(Cc2ccccc2F)NC(=O)[C@@H](NC(=O)CNC(=O)[C@H](Cc2nn[nH]n2)NC(=O)C(C)(C)C(=O)NCCc2cnc[nH]2)[C@@H](C)O)[C@@H](C)O)C(=O)N[C@@H](CCCc2cc(C)cc(C)c2)C(N)=O)cc1` [LP24, triazole-BCN-PEG4-triazole-P8], the “Human plasma stability assay T½” value [1, 2] is reported as >404.7 h.
For `CCc1cc(OCCCCNC(=O)OCCOCCOCCOCCNC(=O)OC[C@@H]2[C@@H]3CCc4[nH]nnc4CC[C@@H]32)ccc1-c1ccc(C[C@H](NC(=O)[C@H](CC(=O)O)NC(=O)[C@H](CO)NC(=O)[C@@H](NC(=O)[C@](C)(Cc2ccccc2F)NC(=O)[C@@H](NC(=O)CNC(=O)[C@H](Cc2nn[nH]n2)NC(=O)C(C)(C)C(=O)NCCc2cnc[nH]2)[C@@H](C)O)[C@@H](C)O)C(=O)N[C@@H](CCCc2cc(C)cc(C)c2)C(N)=O)cc1` [LP25, triazole-BCN-PEG4-carbamate-P9] ({Malonyl(2,2-Me2,histaminyl)}-[Ala(1H-tetrazol-5-yl)]GT[αMePhe(2-F)]TSD[Bip(2'-Et-4'-O(CH2)4NH2)](X6)[Nva(5-(3,5-Me2Ph))]-NH2), the “Human plasma stability assay T½” value [1, 2] was 284.8 h.
In the case of `CCc1cc(OCCCCNC(=O)[C@H](CO)NC(=O)CNC(=O)CNC(=O)CNC(=O)CNC(=O)CCC(=O)N2Cc3ccccc3-c3nn[nH]c3-c3ccccc32)ccc1-c1ccc(C[C@H](NC(=O)[C@H](CC(=O)O)NC(=O)[C@H](CO)NC(=O)[C@@H](NC(=O)[C@](C)(Cc2ccccc2F)NC(=O)[C@@H](NC(=O)CNC(=O)[C@H](Cc2nn[nH]n2)NC(=O)C(C)(C)C(=O)NCCc2cnc[nH]2)[C@@H](C)O)[C@@H](C)O)C(=O)N[C@@H](CCCc2cc(C)cc(C)c2)C(N)=O)cc1` [LP26, triazole-DABAC- G4S-P9], the “Human plasma stability assay T½” value [1, 2] is reported as >404.7 h.
For `CCc1cc(OCCCCn2cc(COCCOCCOCCOCCOCCOCCOCCOCCNC(=O)CCC(=O)N3Cc4ccccc4-c4nn[nH]c4-c4ccccc43)nn2)ccc1-c1ccc(C[C@H](NC(=O)[C@H](CC(=O)O)NC(=O)[C@H](CO)NC(=O)[C@@H](NC(=O)[C@](C)(Cc2ccccc2F)NC(=O)[C@@H](NC(=O)CNC(=O)[C@H](Cc2nn[nH]n2)NC(=O)C(C)(C)C(=O)NCCc2cnc[nH]2)[C@@H](C)O)[C@@H](C)O)C(=O)N[C@@H](CCCc2cc(C)cc(C)c2)C(N)=O)cc1` [LP28, triazole-DIBAC-suc-PEG8-triazole-P8], the half-life ([1]; human plasma, tested for 3 days (C), read-out: Human plasma stability assay T½) was > 173 h.
With `CCc1cc(OCCCCn2cc(COCCOCCOCCOCCOCCOCCOCCOCCN)nn2)ccc1-c1ccc(C[C@H](NC(=O)[C@H](CC(=O)O)NC(=O)[C@H](CO)NC(=O)[C@@H](NC(=O)[C@](C)(Cc2ccccc2F)NC(=O)[C@@H](NC(=O)CNC(=O)[C@H](Cc2nn[nH]n2)NC(=O)C(C)(C)NC(=O)[C@@H](N)Cc2ccc(O)cc2)[C@@H](C)O)[C@@H](C)O)C(=O)N[C@@H](CCCc2cc(C)cc(C)c2)C(N)=O)cc1` [LP29, NH2-PEG8-triazole-P19] the “Human plasma stability assay T½” value [1, 3] was >173.4 h.
With `CCc1cc(OCCCCn2cc(COCCOCCOCCOCCOCCOCCOCCOCCC(=O)N[C@@H](CC(C)C)C(=O)N3CCC[C@@H]3C(=O)N[C@@H](CCC(=O)O)C(=O)N[C@H](C(=O)NCC(=O)NCC(=O)O)[C@@H](C)O)nn2)ccc1-c1ccc(C[C@H](NC(=O)[C@H](CC(=O)O)NC(=O)[C@H](CO)NC(=O)[C@@H](NC(=O)[C@](C)(Cc2ccccc2F)NC(=O)[C@@H](NC(=O)CNC(=O)[C@H](Cc2nn[nH]n2)NC(=O)C(C)(C)C(=O)NCCc2cnc[nH]2)[C@@H](C)O)[C@@H](C)O)C(=O)N[C@@H](CCCc2cc(C)cc(C)c2)C(N)=O)cc1` [LP34, GGTEPL-PEG8- triazole-P8] the “Human plasma stability assay T½” value [1, 3] was >173.4 h.
With `CCc1cc(OCCCCN)ccc1-c1ccc(C[C@H](NC(=O)[C@H](CC(=O)O)NC(=O)[C@H](CO)NC(=O)[C@@H](NC(=O)[C@](C)(Cc2ccccc2F)NC(=O)[C@@H](NC(=O)CNC(=O)[C@@H](N)Cc2nn[nH]n2)[C@@H](C)O)[C@@H](C)O)C(=O)N[C@@H](CCCc2cc(C)cc(C)c2)C(N)=O)cc1` [P2] the “Human plasma stability assay T½” value ([1]; human plasma, tested for 2 hrs (B)) was 10.74 h and the half-life at 2 µM [1] was 10.7 h.
With `CCc1cc(OCCCCN)ccc1-c1ccc(C[C@H](NC(=O)[C@H](CC(=O)O)NC(=O)[C@H](CO)NC(=O)[C@@H](NC(=O)[C@](C)(Cc2ccccc2F)NC(=O)[C@@H](NC(=O)CNC(=O)[C@H](Cc2nn[nH]n2)NC(=O)C(C)(C)NC(=O)[C@@H](N)Cc2ccc(O)cc2)[C@@H](C)O)[C@@H](C)O)C(=O)N[C@@H](CCCc2cc(C)cc(C)c2)C(N)=O)cc1` [P19] (H-Y[Aib][Ala(1H-tetrazol-5-yl)]GT[αMePhe(2-F)]TSD[Bip(2'-Et,4'-O(CH2)4NH2)][Nva(5-(3,5-Me2Ph))]-NH2) the “Human plasma stability assay T½” value [1, 4] was >57.81 h and the half-life at 2 µM [1] was > 57.8 h.
With `CCc1cc(OCCCCN=[N+]=[N-])ccc1-c1ccc(C[C@H](NC(=O)[C@H](CC(=O)O)NC(=O)[C@H](CO)NC(=O)[C@@H](NC(=O)[C@](C)(Cc2ccccc2F)NC(=O)[C@@H](NC(=O)CNC(=O)[C@H](Cc2nn[nH]n2)NC(=O)C(C)(C)C(=O)NCCc2cnc[nH]2)[C@@H](C)O)[C@@H](C)O)C(=O)N[C@@H](CCCc2cc(C)cc(C)c2)C(=O)O)cc1` [P41] ({Malonyl(2,2-Me2,histaminyl)}-[Ala(1H-tetrazol-5-yl)]GT[αMePhe(2-F)]TSD[Bip(2'-Et,4'-O(CH2)4N3)][Nva(5-(3,5-Me2Ph))]-OH) the “Human plasma stability assay T½” value [1, 4] was >57.81 h.
